# Read-outs that look alike come from different tables or passages of the source.
# Tests used:
# [1] = test system: TH17 cell differentiation (human CD4+CCR6+ T cells); experiment: Human Th17 cell differentiation assay (IL-17A ELISA); assay type: cell-based; settings: 96 h, IL-17A in extracellular media by ELISA, 4 days, mean, read-out: Inhibition of TH17 cell differentiation-Mean IC50
# [2] = target: RORγ ligand binding domain (Homo sapiens (Human), UniProt P51449); experiment: biochemical; assay type: biochemical
# Protocol: Various concentrations of test ligands in 0.1 microlitres DMSO were dispensed to assay plates using an Labcyte Echo acoustic dispenser. Two pre-mixes were prepared and incubated for 1 hr at room temp in the dark.
# RORγ ligand binding domain, sequence (P51449 whole entry, looked up, the tested form may be a part): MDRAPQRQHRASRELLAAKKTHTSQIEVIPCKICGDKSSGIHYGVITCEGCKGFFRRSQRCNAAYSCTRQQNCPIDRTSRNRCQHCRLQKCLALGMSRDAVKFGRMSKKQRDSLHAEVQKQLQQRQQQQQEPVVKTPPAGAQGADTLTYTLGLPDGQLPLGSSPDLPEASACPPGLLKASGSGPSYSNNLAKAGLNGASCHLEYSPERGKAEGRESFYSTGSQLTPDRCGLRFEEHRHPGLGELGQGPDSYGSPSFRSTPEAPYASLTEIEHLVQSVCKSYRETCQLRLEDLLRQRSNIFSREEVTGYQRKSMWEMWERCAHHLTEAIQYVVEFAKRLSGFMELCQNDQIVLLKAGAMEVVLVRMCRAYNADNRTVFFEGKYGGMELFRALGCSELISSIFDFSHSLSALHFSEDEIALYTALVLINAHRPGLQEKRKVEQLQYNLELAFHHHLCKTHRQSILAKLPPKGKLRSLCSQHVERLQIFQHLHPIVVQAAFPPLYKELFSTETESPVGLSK
SMILES,IC50 [1] [nM],IC50 ([2]; read-out: RORγ FRET-Mean IC50) [nM],IC50 [2] [nM]
"O=C(O)c1ccc(-n2cc(C(=O)c3c(Cl)cccc3C(F)(F)F)c3ccccc32)cc1 [Comparator 1, 4-[3-[2-chloro-6-(trifluoromethyl)benzoyl]-1H-indol-1-yl]benzoic acid, reference compound]",45.3,,
"O=C(O)c1ccc(-n2cc(C(=O)c3c(F)cccc3C(F)(F)F)c3cccc(F)c32)cc1 [Comparator 2, 4-[7-fluoro-3-[2-fluoro-6-(trifluoromethyl)benzoyl]-1-H-indol-1-yl]benzoic acid, reference compound]",48.2,61.9,
"O=C(O)c1ccc(-n2cc(C(=O)c3c(F)cccc3C(F)(F)F)c3cccc(F)c32)c(F)c1 [Comparator 5, 3-fluoro-4-[7-fluoro-3-[2-fluoro-6-(trifluoromethyl)benzoyl]-1H-indol-1-yl]benzoic acid, reference compound]",47,111,
"O=C(O)c1ccc(-n2cc(C(=O)c3c(Cl)cccc3C(F)(F)F)c3cccc(F)c32)cc1O [Compound 2, 4-[3-[2-chloro-6-(trifluoromethyl)benzoyl]-7-fluoro-indol-1-yl]-2-hydroxy-benzoic acid]",12.6,17.9,
"O=C(O)c1ccc(-n2cc(C(=O)c3c(Cl)cccc3C(F)(F)F)c3cccc(F)c32)c(F)c1 [Compound 3, 4-[3-[2-chloro-6-(trifluoromethyl)benzoyl]-7-fluoro-indol-1-yl]-3-fluoro-benzoic acid]",15,37.9,
"O=C(O)c1ccc(-n2cc(C(=O)c3c(Cl)cccc3C3CC3)c3cccc(F)c32)c(F)c1 [Compound 4, 4-[3-(2-chloro-6-cyclopropyl-benzoyl)-7-fluoro-1H-indol-1-yl]-3-fluoro-benzoic acid]",31.9,,42.9

# Source: patent US9861612B2 (priority 2014, dated 2018)
